# Data published in patent US10150747B2, “Compounds for the treatment of hepatitis C” (BRISTOL-MYERS SQUIBB COMPANY, priority 2015, dated 2018).
# pEC50, pIC50: −log10 of the molar value.
# Key:
# [1] = tested on: genotype 1b (Con-1) HCV replicon in Huh-7 cells; experiment: HCV replicon luciferase assay (1b replicon); type: cell-based; details: Hepatitis C virus, 72 h; genotype 1b replicon, Huh-7, Renilla luciferase, 3 days incubation; read-out: EC50
# Description: The cell lines used to evaluate compounds consist of a human hepatocyte derived cell line (Huh-7) that constitutively expresses a genotype 1b (Con-1) HCV replicon or a genotype 1b (Con-1) HCV replicon with an asparagine replacing the cysteine at amino acid 316, or a genotype 2a (JFH-1) replicon, containing a Renilla luciferase reporter gene. These cells were maintained in Dulbecco's modified Eagle medium (DMEM) containing 10% FBS, 100 U/mL penicillin/streptomycin and 1.0 mg/mL G418.
# HCV Replicon Luciferase Assay.
# After 3 days incubation at 37° C., cells were analyzed for Renilla Luciferase activity using the EnduRen substrate (Promega cat #E6485) according to the manufacturer's directions. Briefly, the EnduRen substrate was diluted in DMEM and then added to the plates to a final concentration of 7.5 μM. The plates were incubated for at least 1 h at 37° C. then read on a Viewlux Imager (PerkinElmer) using a luminescence program.
# [2] = target: HCV NS5B genotype 1b (Con1) (Hepatitis C virus genotype 1b (isolate Con1) (HCV), UniProt Q9WMX2); experiment: HCV NS5B RdRp enzyme assay (1b enzyme); type: biochemical; details: genotype 1b NS5B enzyme
# Description: HCV NS5B RdRp Cloning, Expression, and Purification.
# The cDNA encoding NS5B proteins of HCV genotype 1b (Con1), a genotype 1b variant with amino acid 316 mutated from cysteine to asparagine, and genotype 2a (JFH-1), were cloned into the pET21a expression vector. Each untagged protein was expressed with an 18 amino acid C-terminal truncation to enhance the solubility. The E. coli competent cell line BL21(DE3) was used for expression of the protein. Cultures were grown at 37° C. for ˜4 hours until the cultures reached an optical density of 2.0 at 600 nm. The cultures were cooled to 20° C. and induced with 1 mM IPTG. Fresh ampicillin was added to a final concentration of 50 μg/mL and the cells were grown overnight at 20° C.
# The lysis buffer consisted of 20 mM Tris-HCl, pH 7.4, 500 mM NaCl, 0.5% triton X-100, 1 mM DTT, 1 mM EDTA, 20% glycerol, 0.5 mg/mL lysozyme, 10 mM MgCl2, 15 ug/mL deoxyribonuclease I, and Complete TM protease inhibitor tablets (Roche). After addition of the lysis buffer, frozen cell pellets were resuspended using a tissue homogenizer. To reduce the viscosity of the sample, aliquots of the lysate were sonicated on ice using a microtip attached to a Branson sonicator. The sonicated lysate was centrifuged at 100,000×g for 30 minutes at 4° C. and filtered through a 0.2 μm filter unit (Corning).
# The protein was purified using two sequential chromatography steps: Heparin sepharose CL-6B and polyU sepharose 4B. The chromatography buffers were identical to the lysis buffer but contained no lysozyme, deoxyribonuclease I, MgCl2 or protease inhibitor and the NaCl concentration of the buffer was adjusted according to the requirements for charging the protein onto the column. Each column was eluted with a NaCl gradient which varied in length from 5-50 column volumes depending on the column type. […] The enzyme was aliquoted and stored at −80° C.
# HCV NS5B RdRp Enzyme Assay.
# An on-bead solid phase homogeneous assay was used in a 384-well format to assess NS5B inhibitors (WangY-K, Rigat K, Roberts S, and Gao M (2006) Anal Biochem, 359: 106-111). The biotinylated oligo dT12 primer was captured on streptavidin-coupled imaging beads (GE, RPNQ0261) by mixing primer and beads in 1× buffer and incubating at room temperature for three hours. Unbound primer was removed after centrifugation. The primer-bound beads were resuspended in 3× reaction mix (20 mM Hepes buffer, pH 7.5, dT primer coupled beads, poly A template, ^3H-UTP, and RNAse inhibitor (Promega N2515)). Compounds were serially diluted 1:3 in DMSO and aliquoted into assay plates. Equal volumes (5 μL) of water, 3× reaction mix, and enzyme in 3× assay buffer (60 mM Hepes buffer, pH 7.5, 7.5 mM MgCl2, 7.5 mM KCl, 3 mM DTT, 0.03 mg/mL BSA, 6% glycerol) were added to the diluted compound on the assay plate. Final concentration of components in 384-well assay: 0.36 nM template, 15 nM primer, 0.29 μM ^3H-UTP (0.3 μCi), 1.6 U/4 RNAse inhibitor, 7 nM NS5B enzyme, 0.01 mg/mL BSA, 1 mM DTT, and 0.33 μg/μL beads, 20 mM Hepes buffer, pH 7.5, 2.5 mM MgCl2, 2.5 mM KCl, and 0.1% DMSO.
# Reactions were allowed to proceed for 24 hours at 30° C. and terminated by the addition of 50 mM EDTA (5 μL). After incubating for at least 15 minutes, plates were read on an Amersham LEADseeker multimodality imaging system.
# IC50 values for compounds were determined using ten different [I]. IC50 values were calculated from the inhibition using the four-parameter logistic formula y=A+((B−A)/(1+((C/x)^D))), where A and B denote minimal and maximal % inhibition, respectively, C is the IC50, D is hill slope and x represents compound concentration.
# HCV = details: extended dosing of the combination regimens with interferon and ribavirin; cited from earlier work
# Sequence of HCV NS5B genotype 1b (Con1) (Q9WMX2 2420-2992): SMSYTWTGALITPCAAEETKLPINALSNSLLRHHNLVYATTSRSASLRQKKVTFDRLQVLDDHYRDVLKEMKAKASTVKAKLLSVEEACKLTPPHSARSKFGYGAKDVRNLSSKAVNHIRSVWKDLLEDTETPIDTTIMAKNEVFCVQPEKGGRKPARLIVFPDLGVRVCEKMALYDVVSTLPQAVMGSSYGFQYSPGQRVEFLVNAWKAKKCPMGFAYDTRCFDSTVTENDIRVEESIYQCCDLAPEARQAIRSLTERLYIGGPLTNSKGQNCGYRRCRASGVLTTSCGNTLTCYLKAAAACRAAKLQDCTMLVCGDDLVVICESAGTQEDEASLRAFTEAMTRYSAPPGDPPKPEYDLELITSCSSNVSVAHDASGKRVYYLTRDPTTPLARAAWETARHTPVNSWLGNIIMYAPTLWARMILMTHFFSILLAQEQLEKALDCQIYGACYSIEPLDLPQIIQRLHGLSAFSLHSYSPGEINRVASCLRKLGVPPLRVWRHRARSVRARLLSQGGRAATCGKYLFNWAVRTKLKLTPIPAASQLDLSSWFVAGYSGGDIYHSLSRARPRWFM
Compound,pEC50 [1],pIC50 [2],hepatic toxicity (HCV)
"CCOc1cc2oc(-c3ccc(F)cc3)c(C(=O)NC)c2cc1-c1ccc(CC)c(C(=O)NC(C)(C)c2ncon2)c1 [Example 24, 5-(3-((2-(1,2,4-oxadiazol-3-yl)propan-2-yl)carbamoyl)-4-ethylphenyl)-6-ethoxy-2-(4-fluorophenyl)-N-methylbenzofuran-3-carboxamide]",6.55,< 5.60,–
"CCCOc1cc2oc(-c3ccc(F)cc3)c(C(=O)NC)c2cc1-c1ccc(OC)c(C(=O)NC(C)(C)c2ncon2)c1 [Example 25, 5-(3-((2-(1,2,4-oxadiazol-3-yl)propan-2-yl)carbamoyl)-4-methoxyphenyl)-2-(4-fluorophenyl)-N-methyl-6-propoxybenzofuran-3-carboxamide]",8.21,8.61,–
"CNC(=O)c1c(-c2ccc(F)cc2)oc2cc(OCC(C)C)c(-c3ccc(OC)c(C(=O)NC(C)(C)c4ncon4)c3)cc12 [Example 26, 5-(3-((2-(1,2,4-oxadiazol-3-yl)propan-2-yl)carbamoyl)-4-methoxyphenyl)-2-(4-fluorophenyl)-6-isobutoxy-N-methylbenzofuran-3-carboxamide]",7.10,7.52,–
"[2H]C([2H])([2H])Oc1ccc(-c2cc3c(C(=O)NC)c(-c4ccc(F)cc4)oc3cc2OCC)cc1C(=O)NC(C)(C)C#N [Example 28, 5-(3-((2-cyanopropan-2-yl)carbamoyl)-4-(methoxy-d3)phenyl)-6-ethoxy-2-(4-fluorophenyl)-N-methylbenzofuran-3-carboxamide]",8.70,8.69,–
"CNC(=O)c1c(-c2ccc(F)cc2)oc2cc(OCC(F)(F)F)c(-c3cnc(OC)c(C(=O)NC4(c5ncccn5)CC4)c3)cc12 [Example 29, 5-(2-(4-Fluorophenyl)-3-(methylcarbamoyl)-6-(2,2,2-trifluoroethoxy)benzofuran-5-yl)-2-methoxy-N-(1-(pyrimidin-2-yl)cyclopropyl)nicotinamide]",8.34,8.53,–
"CCOc1cc2oc(-c3ccc(F)cc3)c(C(=O)NC)c2cc1-c1cccc(C(=O)NC(C)(C)c2nc3ccncc3[nH]2)c1 [Example 32, 5-(3-((2-(3H-imidazo[4,5-c]pyridin-2-yl)propan-2-yl)carbamoyl)phenyl)-6-ethoxy-2-(4-fluorophenyl)-N-methylbenzofuran-3-carboxamide]",8.00,8.22,–
"[2H]C([2H])([2H])Oc1ccc(-c2cc3c(C(=O)NC)c(-c4ccc(F)cc4)oc3cc2OCC)cc1C(=O)NC(C)(C)c1ncsn1 [Example 33, 5-(3-((2-(1,2,4-thiadiazol-3-yl)propan-2-yl)carbamoyl)-4-(methoxy-d3)phenyl)-6-ethoxy-2-(4-fluorophenyl)-N-methylbenzofuran-3-carboxamide]",8.60,8.69,–
"CNC(=O)c1c(-c2ccc(F)cc2)oc2cc(OCCO)c(-c3ccc(OC)c(C(=O)NC(C)(C)c4ncon4)c3)cc12 [Example 34, 5-(3-((2-(1,2,4-Oxadiazol-3-yl)propan-2-yl)carbamoyl)-4-methoxyphenyl)-2-(4-fluorophenyl)-6-(2-hydroxyethoxy)-N-methylbenzofuran-3-carboxamide]",8.08,8.41,–
CNC(=O)c1c(-c2ccc(F)cc2)oc2cc(N(CCO)S(C)(=O)=O)c(C3CC3)cc12 [HCV-796],–,–,hepatic toxicity
